Reference: ChEMBL document CHEMBL5321293, “Discovery of ERD-3111 as a Potent and Orally Efficacious Estrogen Receptor PROTAC Degrader with Strong Antitumor Activity” (J Med Chem, 2023)
Calls of active or inactive are those of the source. The rule behind the calls is not given here.

Columns and labels:
[1] = Plasma protein binding in human; type: ADME, cell-free; details: read-out: PPB (converted)
[2] = Plasma protein binding in dog; type: ADME, cell-free, Canis lupus familiaris; details: read-out: PPB (converted)
[3] = Plasma protein binding in monkey; type: ADME, cell-free, Macaca mulatta; details: rhesus monkey, read-out: PPB (converted)
[4] = Plasma protein binding in rat; type: ADME, cell-free; details: read-out: PPB (converted)
[5] = Plasma protein binding in mouse; type: ADME, cell-free; details: read-out: PPB (converted)
[6] = Volume of distribution at steady state in Sprague-Dawley rat at 1 mg/kg, iv and measured upto 24 hrs by LC-MS/MS analysis; details: in vivo
[7] = Clearance in Sprague-Dawley rat at 1 mg/kg, iv and measured upto 24 hrs by LC-MS/MS analysis; details: in vivo
[8] = Half life in Sprague-Dawley rat at 3 mg/kg, po and measured upto 24 hrs by LC-MS/MS analysis; details: in vivo
[9] = AUC in Sprague-Dawley rat at 3 mg/kg, po and measured upto 24 hrs by LC-MS/MS analysis; type: ADME, organism-based; parameters: dose 3 mg/kg, time < 24 hrs, route po; details: in vivo
in vivo [10] = details: Sprague-Dawley, rat, po, 3 mg/kg
in vivo [11] = details: Sprague-Dawley, rat, po, 3 mg/kg; remark: listed apart in the source
[12] = target: T1, Protein cereblon/Estrogen receptor (Homo sapiens, UniProt P03372+Q96SW2); assay: Protac activity at human ERalpha in human MCF7 cells assessed as protein degradation incubated for 12 hrs by ICW blot assay; type: cell-based
Target sequence in this assay (P03372 whole entry): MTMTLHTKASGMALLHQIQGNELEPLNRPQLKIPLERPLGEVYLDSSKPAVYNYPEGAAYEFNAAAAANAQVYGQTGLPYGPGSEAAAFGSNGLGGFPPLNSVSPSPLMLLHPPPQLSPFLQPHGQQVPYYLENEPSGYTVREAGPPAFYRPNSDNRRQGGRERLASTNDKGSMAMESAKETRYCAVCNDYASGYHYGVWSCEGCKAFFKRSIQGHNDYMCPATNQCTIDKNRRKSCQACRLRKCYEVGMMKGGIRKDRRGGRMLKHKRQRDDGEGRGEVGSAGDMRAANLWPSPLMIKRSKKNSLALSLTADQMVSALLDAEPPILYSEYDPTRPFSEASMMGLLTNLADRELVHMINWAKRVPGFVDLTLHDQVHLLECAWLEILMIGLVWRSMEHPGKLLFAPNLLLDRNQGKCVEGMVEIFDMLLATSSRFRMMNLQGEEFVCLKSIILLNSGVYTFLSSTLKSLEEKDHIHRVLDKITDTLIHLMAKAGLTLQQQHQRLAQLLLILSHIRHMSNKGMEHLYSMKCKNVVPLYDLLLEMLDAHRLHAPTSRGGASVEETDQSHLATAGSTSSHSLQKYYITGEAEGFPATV
Target sequence in this assay (Q96SW2 whole entry): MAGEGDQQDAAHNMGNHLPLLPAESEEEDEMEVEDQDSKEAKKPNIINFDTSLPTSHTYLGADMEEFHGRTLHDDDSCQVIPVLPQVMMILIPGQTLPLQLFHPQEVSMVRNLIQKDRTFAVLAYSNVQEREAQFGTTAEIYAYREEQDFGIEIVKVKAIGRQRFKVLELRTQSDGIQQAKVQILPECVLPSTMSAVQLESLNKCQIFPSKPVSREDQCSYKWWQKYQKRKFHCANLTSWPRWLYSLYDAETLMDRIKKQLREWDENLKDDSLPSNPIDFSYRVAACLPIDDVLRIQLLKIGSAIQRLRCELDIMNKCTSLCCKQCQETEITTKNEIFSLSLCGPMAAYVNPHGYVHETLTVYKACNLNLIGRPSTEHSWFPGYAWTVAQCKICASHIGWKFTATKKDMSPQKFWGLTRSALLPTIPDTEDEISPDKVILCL

[13] = target: T1, Protein cereblon/Estrogen receptor; assay: Protac activity at human ERalpha in human MCF7 cells assessed as induction of ERalpha degradation by measuring maximum efficacy at 1 uM incubated for 12 hrs by ICW blot assay relative to control; type: cell-based
Target sequence in this assay (P03372 whole entry, looked up): as the sequence (P03372 whole entry) above
Target sequence in this assay (Q96SW2 whole entry, looked up): as the sequence (Q96SW2 whole entry) above

[14] = rat, in vivo, po, 3 mg/kg, 24 h
[15] = Plasma concentration in Sprague-Dawley rat at 5 mg/kg,po and mesured after 1 hrs by LC-MS/MS analysis; type: ADME, organism-based
[16] = Plasma concentration in Sprague-Dawley rat at 5 mg/kg,po and mesured after 3 hrs by LC-MS/MS analysis; type: ADME, organism-based
[17] = Plasma concentration in Sprague-Dawley rat at 5 mg/kg,po and mesured after 6 hrs by LC-MS/MS analysis; type: ADME, organism-based
[18] = Plasma concentration in Sprague-Dawley rat at 3 mg/kg,po and mesured after 1 hrs by LC-MS/MS analysis; type: ADME, organism-based
[19] = Plasma concentration in Sprague-Dawley rat at 3 mg/kg,po and mesured after 3 hrs by LC-MS/MS analysis; type: ADME, organism-based
[20] = Plasma concentration in Sprague-Dawley rat at 3 mg/kg,po and mesured after 6 hrs by LC-MS/MS analysis; type: ADME, organism-based
[21] = Plasma concentration in Sprague-Dawley rat at 3 mg/kg,po and mesured after 24 hrs by LC-MS/MS analysis; type: ADME, organism-based
[22] = Downregulation of ERalpha protein expression in tumor of CB17 SCID mouse xenografted with human MCF7 cells harboring wild type ESR1 at 30 mg/kg, po qd for 3 days and measured after 24 hrs last dose by Western blot analysis relative to control; type: functional; details: time 3 day
[23] = Downregulation of ERalpha protein expression in tumor of CB17 SCID mouse xenografted with human MCF7 cells harboring wild type ESR1 at 30 mg/kg, po qd for 3 days and measured after 3 hrs last dose by Western blot analysis relative to control; type: functional; details: time 3 day
[24] = Downregulation of ERalpha protein expression in tumor of CB17 SCID mouse xenografted with human MCF7 cells harboring ESR1 Y537S mutant at 30 mg/kg, po qd for 3 days and measured after 6 hrs last dose by Western blot analysis relative to control; type: functional; details: time 3 day
MCF7 [25] = assay: Antitumor activity against human MCF7 cells harboring wild type ESR1 xenografted in CB17 SCID mouse assessed as tumor growth inhibition at 10 mg/kg, po qd for 5 weeks; type: functional; details: MCF7, 840 h, read-out: TGI
MCF7 [26] = assay: Antitumor activity against human MCF7 cells harboring ESR1 Y537S mutant xenografted in CB17 SCID mouse assessed as tumor growth inhibition at 30 mg/kg, po qd for 4 weeks; type: functional
MCF7 [27] = assay: Antitumor activity against human MCF7 cells harboring ESR1 Y537S mutant xenografted in CB17 SCID mouse assessed as tumor growth inhibition at 30 mg/kg, po qd for 4 weeks and measured 30 days post last dose; type: functional
MCF7 [28] = assay: Antitumor activity against human MCF7 cells harboring ESR1 D538G mutant xenografted in CB17 SCID mouse assessed as tumor growth inhibition at 30 mg/kg, po qd for 4 weeks; type: functional; details: MCF7, 672 h, read-out: TGI
MCF7 [29] = assay: Antitumor activity against human MCF7 cells harboring ESR1 D538G mutant xenografted in CB17 SCID mouse assessed as tumor growth inhibition at 30 mg/kg, po qd for 4 weeks and measured 1 week post last dose; type: functional, organism-based
[30] = Toxicity in CB17 SCID mouse xenografted with human MCF7 cells harboring wild type ESR1 assessed as body weight change at 10 mg/kg,po qd for 5 weeks; type: organism-based; details: in vivo, 840 h
[31] = Toxicity in CB17 SCID mouse xenografted with human MCF7 cells harboring ESR1 Y537S mutant assessed as body weight change at 30 mg/kg,po qd for 4 weeks; type: organism-based; details: in vivo, 672 h
[32] = Toxicity in CB17 SCID mouse xenografted with human MCF7 cells harboring ESR1 D538G mutant assessed as body weight change at 30 mg/kg,po qd for 4 weeks; type: organism-based; details: in vivo, 672 h

CN1Cc2cc3c(cc2C1)C(=O)N(C1CCC(=O)NC1=O)C3=O (stereo not given)
fraction unbound [1]: 0.875 | fraction unbound [2]: 0.83 | fraction unbound [3]: 0.856 | fraction unbound [4]: 0.635 | fraction unbound [5]: 0.737 | Vd at 24 h [6]: 5 L/kg | clearance at 24 h [7]: 29.2 mL/min/kg | half-life at 24 h [8]: 1.8 h | AUC at 24 h ([9]; Sprague-Dawley): 1150 ng·h/mL | Cmax at 24 h (in vivo [10]): 228 ng/mL | bioavailability at 24 h (in vivo [11]): 70%

O=C1CCC(N2C(=O)c3cc4c(cc3C2=O)CN(CC2CCN(CC3CCN(c5ccc([C@@H]6c7ccc(O)cc7CC[C@@H]6c6ccccc6)cc5)CC3)CC2)C4)C(=O)N1 (stereo not given in full)
Vd at 24 h [6]: 55.4 L/kg | half-life at 24 h [8]: 16 h | AUC ([9]; 24 h): 399 ng·h/mL | DC50 [12]: 4.3 nM | Emax [13]: 79% | F [14]: 36% | Cmax at 24 h (in vivo [10]): 24.9 ng/mL

C[C@@H]1Cc2c([nH]c3ccccc23)[C@@H](c2c(F)cc(N3CCC4(CCN(C(=O)CN5Cc6cc7c(cc6C5)C(=O)N(C5CCC(=O)NC5=O)C7=O)CC4)CC3)cc2F)N1CC(F)F (stereo not given in full)
DC50 [12]: 0.8 nM | Emax [13]: 106% | concentration at 1 h [15]: 8.3 ng/mL | concentration at 3 h [16]: 14 ng/mL | concentration at 6 h [17]: 10.3 ng/mL

C[C@@H]1Cc2c([nH]c3ccccc23)[C@@H](c2c(F)cc(N3CCC4(CCN(C(=O)CN5Cc6cc7c(cc6C5)C(=O)N(C5CCC(=O)NC5=O)C7=O)CC4)CC3)cc2F)N1CC(C)(C)F (stereo not given in full)
DC50 [12]: 0.8 nM | Emax [13]: 83% | concentration at 1 h [18]: 7.9 ng/mL | concentration at 3 h [19]: 8.2 ng/mL | concentration at 6 h [20]: 8.3 ng/mL | concentration at 24 h [21]: 4 ng/mL

O=C1CC[C@H](N2Cc3cc(N4CCN(CC5CCN(c6ccc([C@@H]7c8ccc(O)cc8CC[C@@H]7c7ccccc7)cc6)CC5)CC4)ccc3C2=O)C(=O)N1 [VEPDEGESTRANT]
Activity [22]: 78% | Activity [23]: 83% | Activity [24]: 77% | inhibition in vivo at 10 mg/kg (MCF7 [25]): 87% | Activity (MCF7 [26]): Active | Activity (MCF7 [27]): Active | inhibition in vivo at 30 mg/kg (MCF7 [28]): 47% | Activity (MCF7 [29]): Active | Activity [30]: Non-Toxic | Activity [31]: Non-Toxic | Activity [32]: Non-Toxic
